# Measured values: patent publication US20170037028A1 (BAYER PHARMA AKTIENGESELLSCHAFT, priority 2013, published 2017)
# Target: T1, GLUT1 (Homo sapiens, UniProt P11166)
# T1 sequence (P11166 1-492): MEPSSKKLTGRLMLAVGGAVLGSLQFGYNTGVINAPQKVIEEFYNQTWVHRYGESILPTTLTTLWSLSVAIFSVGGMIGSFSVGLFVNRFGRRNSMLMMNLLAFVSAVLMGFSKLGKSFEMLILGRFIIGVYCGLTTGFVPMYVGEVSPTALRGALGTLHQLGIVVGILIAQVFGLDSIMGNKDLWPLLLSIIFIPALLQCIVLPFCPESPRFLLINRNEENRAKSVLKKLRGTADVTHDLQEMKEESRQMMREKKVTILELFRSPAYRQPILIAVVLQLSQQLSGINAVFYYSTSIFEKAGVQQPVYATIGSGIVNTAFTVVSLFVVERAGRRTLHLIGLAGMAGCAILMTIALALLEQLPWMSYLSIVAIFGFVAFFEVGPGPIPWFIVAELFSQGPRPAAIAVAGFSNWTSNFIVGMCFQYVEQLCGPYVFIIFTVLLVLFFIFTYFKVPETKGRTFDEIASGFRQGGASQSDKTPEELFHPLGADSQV
# Assay: Indirect measurement of GLUT1 activity by quantification of intracellular ATP levels (glucose induced ATP increase)
# Assay type: cell-based
# Set-up: endogenous in cells; host or cells: DLD1 or CHO-K1
# Conditions: read-out: IC50 regarding glucose induced ATP increase (GLUT1 inhibition)
# Outline: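 DLD1 or CHO-K1 cells were starved overnight in glucose-free medium with 1% FCS, then combined with an oxidative phosphorylation inhibitor. GLUT1 activity was read as glucose-induced ATP increase, GLUT2 as fructose-induced. Intracellular ATP was quantified by CellTiter-Glo luminescence.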
row,SMILES,IC50 [µM]
1,"Cc1cccc(Cn2nc(C)c(NC(=O)c3cc(C(F)(F)F)nc4c(Cl)cc(Cl)cc34)c2C)c1 [Example 28, 6,8-dichloro-N-[3,5-dimethyl-1-(3-methylbenzyl)-1H-pyrazol-4-yl]-2-(trifluoromethyl)quinoline-4-carboxamide]",0.0168
2,"Cc1cc(C(=O)Nc2c(C)nn(Cc3ccc(F)cc3)c2C)c2cc(F)ccc2n1 [Example 90, 6-fluoro-N-[1-(4-fluorobenzyl)-3,5-dimethyl-1H-pyrazol-4-yl]-2-methylquinoline-4-carboxamide]",0.291
3,CNC(=O)c1ccc(Cn2nc(C)c(NC(=O)c3cc(C(F)(F)F)nc4ccc(Br)cc34)c2C)nc1 [Example 1070],0.0202
4,"COc1ccc(Cn2nc(C)c(NC(=O)c3cc(C(N)=O)nc4cc(F)c(F)cc34)c2C)cc1 [Example 226, 6,7-difluoro-N^4-[1-(4-methoxybenzyl)-3,5-dimethyl-1H-pyrazol-4-yl]quinoline-2,4-dicarboxamide]",0.004
5,"Cc1c(NC(=O)c2cc(C(N)=O)nc3cc(F)ccc23)c(C(F)(F)F)nn1Cc1ccccc1C#N [Example 272, N^4-[1-(2-cyanobenzyl)-5-methyl-3-(trifluoromethyl)-1H-pyrazol-4-yl]-7-fluoroquinoline-2,4-dicarboxamide]",0.0025
6,"Cc1c(NC(=O)c2cc(C(F)(F)F)nc3cc(F)c(F)cc23)c(C(F)(F)F)nn1Cc1ccc(C#N)cc1 [Example 182, N-[1-(4-cyanobenzyl)-5-methyl-3-(trifluoromethyl)-1H-pyrazol-4-yl]-6,7-difluoro-2-(trifluoromethyl)quinoline-4-carboxamide]",0.101
7,"Cc1nn(Cc2ccc(F)cc2)c(C)c1NC(=O)c1c2c(nc3ccc(Br)cc13)CCCC2 [Example 37, 7-bromo-N-[1-(4-fluorobenzyl)-3,5-dimethyl-1H-pyrazol-4-yl]-1,2,3,4-tetrahydroacridine-9-carboxamide]",0.0267
8,"Cc1nn(Cc2ccc(C#N)cn2)c(C)c1NC(=O)c1cc(C(F)(F)F)nc2ccc(Br)cc12 [Example 353, 6-bromo-N-{1-[(5-cyanopyridin-2-yl)methyl]-3,5-dimethyl-1H-pyrazol-4-yl}-2-(trifluoromethyl)quinoline-4-carboxamide]",0.0023
9,Cc1nn(Cc2ccncc2C#N)c(C)c1NC(=O)c1cc(C(F)(F)F)nc2ccc(Br)cc12 [Example 1074],0.0223
10,Cc1nn(Cc2ccc(C(=O)N3CCCC3)cc2)c(C)c1NC(=O)c1cc(C(F)(F)F)nc2ccc(Br)cc12 [Example 1033],0.0042
11,"Cc1c(NC(=O)c2cc(C(N)=O)nc3ccccc23)c(C(F)(F)F)nn1Cc1c(F)cc(C#N)cc1F [Example 396, N^4-[1-(4-cyano-2,6-difluorobenzyl)-5-methyl-3-(trifluoromethyl)-1H-pyrazol-4-yl]quinoline-2,4-dicarboxamide]",0.0159
12,Cc1nn(Cc2ccc(C(=O)NCCc3ccccn3)cc2)c(C)c1NC(=O)c1cc(C(F)(F)F)nc2ccc(Br)cc12 [Example 1139],0.105
13,"Cc1nn(Cc2c(F)cc(F)cc2F)c(C)c1NC(=O)c1cc(C(F)(F)F)nc2ccc(Br)cc12 [Example 49, 6-bromo-N-[3,5-dimethyl-1-(2,4,6-trifluorobenzyl)-1H-pyrazol-4-yl]-2-(trifluoromethyl)quinoline-4-carboxamide]",0.05
14,"Cc1c(NC(=O)c2cc(C(=O)NCCN3CCOCC3)nc3cc(F)ccc23)c(C(F)(F)F)nn1Cc1ccc(C#N)cc1 [Example 342, N^4-[1-(4-cyanobenzyl)-5-methyl-3-(trifluoromethyl)-1H-pyrazol-4-yl]-7-fluoro-N^2-[2-(morpholin-4-yl)ethyl]quinoline-2,4-dicarboxamide]",0.336
15,"Cc1c(NC(=O)c2cc(C(F)(F)F)nc3cc(F)c(F)cc23)c(C(F)(F)F)nn1Cc1ccc(F)cc1 [Example 193, 6,7-difluoro-N-[1-(4-fluorobenzyl)-5-methyl-3-(trifluoromethyl)-1H-pyrazol-4-yl]-2-(trifluoromethyl)quinoline-4-carboxamide]",0.215
16,"Cc1c(NC(=O)c2cc(C(N)=O)nc3c(F)cc(Cl)cc23)c(C(F)(F)F)nn1Cc1ccc(C#N)cc1 [Example 241, 6-chloro-N^4-[1-(4-cyanobenzyl)-5-methyl-3-(trifluoromethyl)-1H-pyrazol-4-yl]-8-fluoroquinoline-2,4-dicarboxamide]",0.0011
17,"COc1ccc(Cn2nc(C)c(NC(=O)c3cc(C(N)=O)nc4cc(F)c(Cl)cc34)c2C)cn1 [Example 283, 6-chloro-7-fluoro-N^4-{1-[(6-methoxypyridin-3-yl)methyl]-3,5-dimethyl-1H-pyrazol-4-yl}quinoline-2,4-dicarboxamide]",0.0012
18,"Cc1nn(CCCc2ccc(C#N)cc2)c(C)c1NC(=O)c1cc(C(N)=O)nc2cc(F)c(Cl)cc12 [Example 346, 6-chloro-N^4-{1-[3-(4-cyanophenyl)propyl]-3,5-dimethyl-1H-pyrazol-4-yl}-7-fluoroquinoline-2,4-dicarboxamide]",0.0006
19,"COc1ccc(Cn2nc(C)c(NC(=O)c3cc(C(F)(F)F)nc4ccc(Br)cc34)c2C)cc1 [Example 3, 6-bromo-N-[1-(4-methoxybenzyl)-3,5-dimethyl-1H-pyrazol-4-yl]-2-(trifluoromethyl)quinoline-4-carboxamide]",0.0031
20,Cc1c(NC(=O)c2cc(C(F)(F)F)nc3ccc(Br)cc23)c(C(N)=O)nn1Cc1ccc(F)cc1 [Example 1135],0.0981
21,"Cc1c(NC(=O)c2cc(C(N)=O)nc3cc(F)ccc23)c(C(F)(F)F)nn1Cc1ccc(-c2nnn[nH]2)cc1 [Example 400, 7-fluoro-N^4-{5-methyl-1-[4-(1H-tetrazol-5-yl)benzyl]-3-(trifluoromethyl)-1H-pyrazol-4-yl}quinoline-2,4-dicarboxamide]",1.26
22,COc1cccc(CNC(=O)c2ccc(Cn3nc(C)c(NC(=O)c4cc(C(F)(F)F)nc5ccc(Br)cc45)c3C)cc2)c1 [Example 1132],0.0882
23,"Cc1c(NC(=O)c2cc(C(N)=O)nc3cc(F)c(Cl)cc23)c(C(F)(F)F)nn1Cc1ccc(C#N)cc1 [Example 213, 6-chloro-N^4-[1-(4-cyanobenzyl)-5-methyl-3-(trifluoromethyl)-1H-pyrazol-4-yl]-7-fluoroquinoline-2,4-dicarboxamide]",0.0007
24,"CNC(=O)c1cc(C(=O)Nc2c(C)nn(Cc3ccc(F)cc3)c2C)c2ccccc2n1 [Example 172, N^4-[1-(4-fluorobenzyl)-3,5-dimethyl-1H-pyrazol-4-yl]-N^2-methylquinoline-2,4-dicarboxamide]",0.0591
25,"COc1ccc(Cn2nc(C)c(NC(=O)c3cc(C)nc4ccc(C)cc34)c2C)cc1 [Example 4, N-[1-(4-methoxybenzyl)-3,5-dimethyl-1H-pyrazol-4-yl]-2,6-dimethylquinoline-4-carboxamide]",0.0038
26,"Cc1ccc2nc(C)cc(C(=O)Nc3c(C)nn(Cc4c(F)cccc4F)c3C)c2c1 [Example 84, N-[1-(2,6-difluorobenzyl)-3,5-dimethyl-1H-pyrazol-4-yl]-2,6-dimethylquinoline-4-carboxamide]",0.255

# Now from value to molecule:
row,IC50 [µM],SMILES
1,0.112,Cc1cc(Cn2nc(C(F)(F)F)c(NC(=O)c3cc(C(N)=O)nc4ccccc34)c2C)on1 [Example 1543]
2,0.0155,Cc1c(NC(=O)c2cc(C(N)=O)nc3cc(F)ccc23)c(C(F)(F)F)nn1Cc1ncccc1C#N [Example 1392]
3,0.0376,CCc1cc(Cn2nc(C)c(NC(=O)c3cc(C(N)=O)nc4ccccc34)c2C)on1 [Example 1531]
4,0.0031,Cc1c(NC(=O)c2cc(C(N)=O)nc3cc(F)c(Cl)cc23)c(C(F)(F)F)nn1Cc1ccc(S(C)(=O)=O)cc1 [Example 1438]
5,8.12,Cc1nn(Cc2ccc(F)cc2)c(C)c1NC(=O)c1cc(C(F)(F)F)nc2ccc(C(N)=O)cc12 [Example 1294]
6,0.0026,COc1cc(Cn2nc(C(F)(F)F)c(NC(=O)c3cc(C(N)=O)nc4cc(F)ccc34)c2C)ccc1C#N [Example 1664]
7,0.0844,Cc1nn(Cc2cnn(C)c2C)c(C)c1NC(=O)c1cc(C(N)=O)nc2ccccc12 [Example 1567]
8,0.0026,CC(=O)c1ccc(Cn2nc(C(F)(F)F)c(NC(=O)c3cc(C(N)=O)nc4cc(F)ccc34)c2C)cc1 [Example 1605]
9,0.229,COC(=O)c1cc(C(=O)Nc2c(C)nn(Cc3ccc(C#N)cc3)c2C)c2ccc(OC)cc2n1 [Example 1390]
10,2.29,Cc1ccc2nc(C)cc(C(=O)Nc3c(C)nn(Cc4ccccn4)c3C)c2c1 [Example 1261]
11,0.0394,Cc1nn(C(C)CCc2ccc(F)cc2)c(C)c1NC(=O)c1cc(C(N)=O)nc2ccccc12 (racemic) [Example 1379]
12,0.95,COc1cc(C(=O)Nc2c(C(F)(F)F)nn(CCc3ccc(F)cc3)c2C)c2ccccc2n1 [Example 1372]
13,0.711,COCc1noc(Cn2nc(C)c(NC(=O)c3cc(C(F)(F)F)nc4ccc(Br)cc34)c2C)n1 [Example 1507]
14,0.167,Cc1nn(Cc2ccc(C(=O)NC[C@@H]3CCCO3)cc2)c(C)c1NC(=O)c1cc(C(F)(F)F)nc2ccc(Br)cc12 [Example 1164]
15,6.25,Cc1ccc2nc(C)cc(C(=O)Nc3c(C)nn(Cc4ncccc4C)c3C)c2c1 [Example 1285]
16,0.0038,COc1cc(Cn2nc(C(F)(F)F)c(NC(=O)c3cc(C(N)=O)nc4cccc(F)c34)c2C)ccc1C#N [Example 1665]
